This assay relates to scopolamine-induced amnesia. Put plainly: Y-shaped maze test of spontaneous alternation behavior, prophylactic activity against scopolamine-induced amnesia. The assay is classed as in vivo, mice (ddY strain). Conditions: male ddY mice; 5000 nmol/kg weight once orally 60 minutes before Y-shaped maze test; scopolamine 1 mg/kg weight subcutaneously 30 minutes before test. How it is done:
Male mice (n=15) of the ddY strain (approximately 7-week old) were used, and they took food and water ad lib. Test substances used were 500 nmol/kg weight (230 ug/kg weight) and 5000 nmol/kg weight (2300 ug/kg weight) of Val-Pro-Pro-Phe (SEQ ID NO: 2). The test substances were administered to the mice once orally 60 minutes before the execution of a Y-shaped maze test for evaluation of spontaneous alternation behavior. Further, 30 minutes before the execution of the Y-shaped maze test, 1 mg/kg weight of scopolamine was subcutaneously administered on the backs of the mice in order to induce brain dysfunction (dysmnesia and/or cognitive impairment) in the mice. In the Y-shaped maze test, a Y-shaped maze was used as an experimental device, in which the length of each arm was 40 cm, the height of the wall was 12 cm, the width of the floor was 3 cm, and the width of the upper part was 10 cm, and three arms were connected to each other at an angle of 120 degrees. […] The sequence of the arms each of the mice entered was recorded. The number of entries by each of the mice for each of the arms during the measurement time was counted to be the total number of entries. […] The percentage of spontaneous alternation behavior was calculated by dividing the number of spontaneous alternation behavior by a number obtained by subtracting 2 from the total number of entries, and multiplying a resultant number by 100. […] The measured values were expressed in the form of mean±standard error for each group. A significant difference between the control group and the scopolamine control group was calculated using Student's t-test. Further, a significant difference between the scopolamine control group and the VPPF-administered group was calculated using Dunnett's multiple comparison test after one-way analysis of variance.
Male mice (n=15) of the ddY strain (approximately 7-week old) were used, and they took food and water ad lib. […] The arms each of the mice entered were sequentially recorded. […]

This note sets out measurements from patent publication US8916524B2, “Composition for improving brain function and method for improving brain function” (Calpis Co., Ltd., priority 2010, dated 2014).

Consider “Asn-Ile-Pro-Pro-Leu (NIPPL; Synthetic functional peptide)”, for which the “prophylactic activity against amnesia (percentage of spontaneous alternation behavior)” value is “had a prophylactic activity against amnesia”.

Turning to “Ile-Pro-Pro-Leu (IPPL; Synthetic functional peptide)”, the “prophylactic activity against amnesia (percentage of spontaneous alternation behavior)” value is listed as “had a prophylactic activity against amnesia”.

Turning to “Val-Pro-Pro-Phe (VPPF; Synthetic functional peptide)”, the “prophylactic activity against amnesia (percentage of spontaneous alternation behavior)” value is reported as “had a prophylactic activity against amnesia”.
